According to patent US20240293558A1, “KRAS INHIBITOR CONJUGATES” (Erasca, Inc., priority 2021, published 2024):
Read-outs that look alike come from different tables or passages of the source.

Key:
KRAS (WT) = molecular target: T1, KRAS (WT) (Homo sapiens, UniProt P01116); experiment: In-vitro RAS-RAF binding assay (RRB), HTRF/FRET; type: biochemical; settings: read-out: Inhibition of RAS-RAF Binding (in-vitro) KRAS (WT) IC50
T1 construct: Biotinylated KRAS protein amino acids 1-169 (produced at Erasca); made in house
T1 sequence (P01116 1-169 isoform P01116-2): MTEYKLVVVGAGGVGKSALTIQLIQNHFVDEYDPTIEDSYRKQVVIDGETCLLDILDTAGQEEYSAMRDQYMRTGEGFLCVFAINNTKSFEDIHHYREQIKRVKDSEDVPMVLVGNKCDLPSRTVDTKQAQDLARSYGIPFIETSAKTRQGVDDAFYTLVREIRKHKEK
In short: (§1)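 Compounds preincubated with terbium-labelled biotinylated KRAS (aa 1-169, 30 nM) before 60 min SOS1-catalysed exchange to GTPgS. Binding of the d2-labelled cRAF RBD (30 nM) is read as FRET at equilibrium in duplicate. Buffer: 50 mM HEPES pH 7.5, 100 mM NaCl, 1 mM MgCl2, 1 mM DTT.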

[1] = molecular target: T2, KRas G12D fused to HiBiT peptide (Homo sapiens, UniProt P01116, G12D); experiment: ASPC-1 HiBit assay to determine G12D degradation; type: cell-based; settings: AsPC-1 HiBiT cells, 24-hour incubation; read-out: ASPC-1 HiBit DC50 (C)
T2 construct: endogenous in cells; host or cells: AsPC-1 HiBiT knock-in single clone (Cas9 RNP + ssODN)
T2 sequence (P01116 1-188 isoform P01116-2 G12D): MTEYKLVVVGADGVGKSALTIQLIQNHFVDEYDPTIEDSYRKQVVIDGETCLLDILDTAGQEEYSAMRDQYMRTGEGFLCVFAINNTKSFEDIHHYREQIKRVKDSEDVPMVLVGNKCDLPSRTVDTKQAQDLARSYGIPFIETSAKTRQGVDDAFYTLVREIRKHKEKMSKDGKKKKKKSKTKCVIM
In short: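 Homozygous AsPC-1 clone with N-terminal HiBiT knock-in on endogenous KRas G12D, 24 h compound exposure, top dose 10 μM, 3-fold, 10 points, 1% DMSO. Lytic HiBiT luminescence normalised to DMSO and inhibitor controls gives % degradation; DC50 from 4-parameter fit after hook-effect points removed.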

KRAS G12D = KRAS G12D (Homo sapiens, UniProt P01116, G12D); experiment: In-vitro RAS-RAF binding assay (RRB), HTRF/FRET; type: biochemical; set-up: Biotinylated KRAS protein amino acids 1-169 (produced at Erasca); made in house; settings: read-out: Inhibition of RAS-RAF Binding (in-vitro) KRAS (G12D) IC50
Sequence of KRAS G12D (P01116 1-169 isoform P01116-2 G12D): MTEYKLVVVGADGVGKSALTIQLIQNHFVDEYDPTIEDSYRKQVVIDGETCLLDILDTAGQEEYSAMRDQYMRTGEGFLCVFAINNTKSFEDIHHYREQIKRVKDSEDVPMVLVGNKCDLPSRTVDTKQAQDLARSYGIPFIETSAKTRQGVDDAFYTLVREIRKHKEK
In short: as §1

[2] = Table 2, average of multiple runs of each compound

| Structure (SMILES) | IC50 (KRAS (WT); [2]) [nM] | DC50 [1] [nM] | IC50 (KRAS G12D; [2]) [nM] | IC50 (KRAS (WT); Table 1) [nM] | IC50 (KRAS G12D; Table 1) [nM] |
| --- | --- | --- | --- | --- | --- |
| C[C@H](NC(=O)[C@@H]1C[C@@H](O)CN1C(=O)[C@@H](NC(=O)CCOCCCN1CCC[C@H]1COc1nc(N2CC3CCC(C2)N3)c2cc(C(F)(F)F)c(-c3ccc(F)c4sc(N)c(C#N)c34)c(F)c2n1)C(C)(C)C)c1ccc(-c2c(F)cccc2F)cc1 (single isomer, unassigned) [Example 20] | 26.9 | 22.7 | 8.52 |  |  |
| Cc1ncsc1-c1ccc([C@H](C)NC(=O)[C@@H]2C[C@@H](O)CN2C(=O)[C@@H](NC(=O)CCOCCCN2CCCC2COc2nc(N3CC4CCC(C3)N4)c3cc(Cl)c(-c4ccc(F)c5sc(N)c(C#N)c45)c(F)c3n2)C(C)(C)C)cc1 (stereo partly drawn) [Example 8, (2S,4R)-1-[(2S)-2-[3-[3-[2-[[7-(2-amino-3-cyano-7-fluoro-benzothiophen-4-yl)-6-chloro-4-(3,8-diazabicyclo[3.2.1]octan-3-yl)-8-fluoro-quinazolin-2-yl]oxymethyl]pyrrolidin-1-yl]propoxy]propanoylamino]-3,3-dimethyl-butanoyl]-4-hydroxy-N-[(1S)-1-[4-(4-methylthiazol-5-yl)phenyl]ethyl]pyrrolidine-2-carboxamide] | 25.9 | 126 | 8.18 | 51 | 11 |
